Experimental findings from patent US20260159500A1, “KINESIN KIF18A INHIBITOR AND USE THEREOF” (SHANGHAI APEIRON THERAPEUTICS COMPANY LIMITED, priority 2022, published 2026) are described below.

SMILES strings stand for the structures. Read-outs that look alike come from different tables or passages of the source. Some results are limits rather than exact numbers.

In experiment [1] the test system is HT29 cells. As to the kind of experiment: CyQuant cell proliferation activity test in HT29 cells. It is filed as cell-based. To be noted: 2000 cells per well, 3 days incubation, IC50 by XLFIT, read-out: HT29_IC50_nM. In outline: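 Cells seeded at 2000/well in RPMI-1640 with 10% FBS, overnight, then exposed 3 days at 37 °C to compound from 3000 nM top, 3-fold, 9 points, 0.2% DMSO. CyQuant read after 1 h; IC50 from curve fit.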

For experiment [2], the system named is OVCAR3 cells. The experiment can be described thus: Cell proliferation activity test in OVCAR3 cells (CyQUANT Direct). In kind it is cell-based. To be noted: 3 days incubation, CyQUANT fluorescence detection, read-out: OVCAR-3_IC50_nM. In outline:
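Log-phase cells in RPMI-1640 with 10% FBS were seeded overnight, then exposed to compound at final 0–10 μM (0.2% DMSO) for 3 days at 37 °C, 5% CO2. Proliferation was read by CyQUANT Direct fluorescence after 60 min at 37 °C.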

The target of experiment [3] is T1, Human KIF18A (amino acid sequence 1-417) (Homo sapiens, UniProt Q8NI77).
T1 construct: purchased Viva Biotech (Shanghai) Ltd
T1 sequence (Q8NI77 1-417): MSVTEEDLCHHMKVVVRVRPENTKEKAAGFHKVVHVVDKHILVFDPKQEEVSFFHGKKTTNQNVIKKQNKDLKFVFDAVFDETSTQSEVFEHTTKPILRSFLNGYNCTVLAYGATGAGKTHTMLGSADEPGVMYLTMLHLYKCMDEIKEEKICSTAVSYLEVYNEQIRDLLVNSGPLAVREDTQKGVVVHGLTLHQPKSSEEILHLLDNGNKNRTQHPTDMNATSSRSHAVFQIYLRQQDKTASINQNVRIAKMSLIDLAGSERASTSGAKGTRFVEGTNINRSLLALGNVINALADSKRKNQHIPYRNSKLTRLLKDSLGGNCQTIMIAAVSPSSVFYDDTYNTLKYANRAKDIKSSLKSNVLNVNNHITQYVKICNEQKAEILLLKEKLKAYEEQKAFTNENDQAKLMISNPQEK
The experiment can be described thus: Enzymatic activity test (ADP-Glo, microtubule-stimulated KIF18A ATPase). In kind it is biochemical. To be noted: 60 μg/mL microtubules, 25 μM ATP, 2.5 nM KIF18A protein, 120 min at ambient temperature, read-out: KIF18A_nM. In outline:
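Microtubule-stimulated ATPase of KIF18A(1-417) run with 60 μg/mL microtubules, 25 μM ATP and 2.5 nM enzyme, compounds at 0-10 μM final, 120 min at ambient temperature. ADP formed was read by ADP-Glo chemiluminescence after two 30-min reagent incubations.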
On the technique in general: In ADP-Glo the light output rises with the ADP produced.

Regarding `O=C(O)c1cnc2c(N3CCC(F)(F)CC3)cc(NC(=O)c3ccc(NS(=O)(=O)CCO)cc3N3CCC4(CC3)CC4)cc2c1` [Example 87, 6-(2-{6-azaspiro[2.5]octan-6-yl}-4-(2-hydroxyethanesulfonamido)benzoylamino)-8-(4,4-difluoropiperidin-1-yl)quinoline-3-carboxylic acid], the IC50 was > 3000 nM in experiment [1] (Homo sapiens, HT-29, 72 h); > 3000 nM in experiment [2] (Homo sapiens, OVCAR-3, 72 h); 10 nM in experiment [3].
With `NC(=O)c1cnc2c(N3CCC(F)(F)CC3)cc(NC(=O)c3ccc(NS(=O)(=O)CCO)cc3N3CCC4(CC3)CC4)cc2c1` [Example 88, 6-(2-{6-azaspiro[2.5]octan-6-yl}-4-(2-hydroxyethanesulfonamido)benzoylamino)-8-(4,4-difluoropiperidin-1-yl)quinoline-3-carboxamide], the IC50 in experiment [1] (Homo sapiens, HT-29, 72 h) was 425 nM; in experiment [2] (Homo sapiens, OVCAR-3, 72 h), 154 nM; in experiment [3], 41 nM.
As to `Cc1cc2cc(NC(=O)c3ccc(NS(=O)(=O)CCO)cc3N3CCC4(CC3)CC4)cc(N3CCC(F)(F)CC3)c2nc1N` [Example 89, N-[2-Amino-8-(4,4-difluoropiperidinyl)-3-methyl (6-quinolinyl)](2-(6-azaspiro[2.5]octan-6-yl)-4-{[(2-hydroxyethyl)sulfonyl]amino}phenyl)formamide], the IC50 amounted to 32 nM in experiment [1], 32 nM in experiment [2] and 179 nM in experiment [3].
For the molecule `Cc1cnc2c(N3CCC(F)(F)CC3)c(F)c(NC(=O)c3ccc(NS(=O)(=O)CCO)cc3N3CCC4(CC3)CC4)cc2c1` [Example 90, 2-{6-azaspiro[2.5]octan-6-yl}-N-[8-(4,4-difluoropiperidin-1-yl)-7-fluoro-3-methylquinolin-6-yl]-4-(2-hydroxyethanesulfonamido)benzamide], the IC50 in experiment [1] (Homo sapiens, HT-29, 72 h) came to 106 nM; in experiment [2] (Homo sapiens, OVCAR-3, 72 h), 96 nM; in experiment [3], 341 nM.
As to `Nc1cnc2c(N3CCC(F)(F)CC3)c(F)c(NC(=O)c3ccc(NS(=O)(=O)CCO)cc3N3CCC4(CC3)CC4)cc2c1` [Example 91, N-[3-amino-8-(4,4-difluoropiperidin-1-yl)-7-fluoroquinolin-6-yl]-2-{6-azaspiro[2.5]octan-6-yl}-4-(2-hydroxyethanesulfonamido)benzamide], the IC50 in experiment [1] (Homo sapiens, HT-29, 72 h) came to 16 nM; in experiment [2] (Homo sapiens, OVCAR-3, 72 h), 13 nM; in experiment [3] it was 173 nM.
As for `C[C@H](CO)S(=O)(=O)Nc1ccc(C(=O)Nc2cc3cccnc3c(N3CCC(F)(F)CC3)n2)c(N2CCC3(CC2)CC3)c1` [Example 96, 2-{6-Azaspiro[2.5]octan-6-yl}-N-[8-(4,4-difluoropiperidin-1-yl)-1,7-naphthyridin-6-yl]-4-[(2R)-1-hydroxypropane-2-sulfonamido]benzamide], the IC50 in experiment [1] (Homo sapiens, HT-29, 72 h) worked out at 17 nM; in experiment [2] (Homo sapiens, OVCAR-3, 72 h), 11.3 nM; in experiment [3], 153 nM.
For `C[C@@H](CO)S(=O)(=O)Nc1ccc(C(=O)Nc2cc3cccnc3c(N3CCC(F)(F)CC3)n2)c(N2CCC3(CC2)CC3)c1` [Example 97, 2-{6-azaspiro[2.5]octan-6-yl}-N-[8-(4,4-difluoropiperidin-1-yl)-1,7-naphthyridin-6-yl]-4-[(2S)-1-hydroxypropane-2-sulfonamido]benzamide] the same measures were 17 nM, 13.9 nM and 153 nM.
Consider `C[C@H](CO)S(=O)(=O)Nc1ccc(C(=O)Nc2cc3cccnc3c(N3CCC(F)(F)CC3)c2F)c(N2CCC3(CC2)CC3)c1` [Example 98, 2-{6-azaspiro[2.5]octan-6-yl}-N-[8-(4,4-difluoropiperidin-1-yl)-7-fluoroquinolin-6-yl]-4-[(2R)-1-hydroxypropane-2-sulfonamido]benzamide], for which the IC50 in experiment [1] (Homo sapiens, HT-29, 72 h) is 21 nM; in experiment [2] (Homo sapiens, OVCAR-3, 72 h), 17 nM; in experiment [3], 166 nM.
In the case of `C[C@@H](CO)S(=O)(=O)Nc1ccc(C(=O)Nc2cc3cccnc3c(N3CCC(F)(F)CC3)c2F)c(N2CCC3(CC2)CC3)c1` [Example 99, 2-{6-azaspiro[2.5]octan-6-yl}-N-[8-(4,4-difluoropiperidin-1-yl)-7-fluoroquinolin-6-yl]-4-[(2S)-1-hydroxypropane-2-sulfonamido]benzamide], the IC50 in experiment [1] (Homo sapiens, HT-29, 72 h) was determined as 22 nM; in experiment [2] (Homo sapiens, OVCAR-3, 72 h), 17 nM; in experiment [3], 174 nM.
Taken in the same sequence, the figures for `O=C(Nc1ccc(NS(=O)(=O)CCO)cc1N1CCC2(CC1)CC2)c1cc(N2CCC(F)(F)CC2)c2ncccc2c1` [Example 100, N-(2-{6-azaspiro[2.5]octan-6-yl}-4-(2-hydroxyethanesulfonamido)phenyl)-8-(4,4-difluoropiperidin-1-yl)quinoline-6-carboxamide] were 12 nM, 11 nM and 24 nM.
